Experimental findings from patent US20180296623A1, “PHARMACEUTICAL COMPOSITION FOR PROMOTING PERIODONTAL TISSUE GROWTH AND FOR PREVENTION AND TREATMENT OF PERIODONTITIS, CONTAINING MAGNOLIA FLOWER EXTRACT, FRACTION THEREOF OR COMPOUND ISOLATED THEREFROM AS ACTIVE INGREDIENT” (OKINAWA RESEARCH CENTER CO., LTD., priority 2015, published 2018) are described below.

In the assay the test system is dental root or periodontal tissue. In words: Transplantation of mouse molar embedded in agarose beads containing fargesin into host mouse kidney capsule; micro CT. The class given is in vivo, C57BL/6 mouse. The conditions noted are these: beads soaked in 80 μm fargesin in PBS, molar of 5-day-old mouse grafted into kidney capsule of 8-week-old host mouse, 3 weeks, vs PBS control. The method, then: The following experiment was performed in order to investigate the promoting effect of the fargesin isolated from the Magnolia flower extract on the growth of dental root or periodontal tissue.
Particularly, the fargesin obtained in Example 1 was diluted in PBS (Dainippon Pharmaceuticals Inc., Japan) at the final concentration of 80 μm, and four agarose beads (Affi-Gel Blue Gel, #153-7301, Bio-Rad Laboratories Inc., Japan) were washed with PBS, followed by reaction for at least 60 minutes to allow the fargesin to be absorbed in those beads. For the control, 4 other beads were reacted only with PBS. A 5-day-old C57BL/6 mouse (Sankyo Labo Service Corporation, Japan) was sacrificed, from which molars were extracted from the lower jaws. Dental pulp of the extracted molar was embedded in the agarose beads containing fargesin. For the control, dental pulp of the extracted molar was embedded in the agarose beads containing PBS alone. The agarose beads were each grafted into capsules of the 8-week-old C57BL/6 host mouse (female, Sankyo Labo Service Corporation, Japan) kidneys. The host mice were raised in the conditions of 12 h/12 h light and dark cycle, room temperature, and free feeding. 3 weeks later, the mice were sacrificed, from which the kidneys were extracted. Then, the teeth were observed. The 3D image of the teeth was taken by micro CT (Rigaku R_mCT2).

`COc1ccc([C@@H]2OC[C@H]3[C@@H]2CO[C@@H]3c2ccc3c(c2)OCO3)cc1OC` [fargesin]: the “formation of alveolar bone around the grafted tooth” value was “observed” and the “growth of dental root” value is listed as “significant”.
